# According to patent publication US11186547B2, “High-purity quinoline derivative and method for manufacturing same” (Eisai R&D Management Co., Ltd., priority 2014, dated 2021):
# Experiments:
# [1] = genotoxicity, consideration of the present inventors; conditions: according to the consideration of the present inventors
# Description: (§1) The compound (A-1) is the starting material of the step A, but its solubility in organic solvents is low.
# [2] = solubility in organic solvents; assay type: physicochemical
# Description: as §1
# [3] = Workplace Safety Site, Public Notice No. 166 of Mar. 27, 2012; cited from earlier work
# [4] = decomposition on heating after dissolution in a solvent; assay type: physicochemical; conditions: heated after dissolved in a solvent
smiles,measurement,setting,value
"COc1cc2nccc(Cl)c2cc1C(N)=O [compound (A-1), 4-chloro-7-methoxy-quinoline-6-carboxamide]",genotoxicity,[1],possibility that the compound (A-1) exhibits genotoxicity
same,solubility in organic solvents,[2],low
"COc1cc2nccc(Oc3ccc(N)c(Cl)c3)c2cc1C(N)=O [compound (I), 4-(4-Amino-3-chlorophenoxy)-7-methoxy-quinoline-6-carboxamide]",mutagenicity,[3],strong mutagenicity was recognized
"COc1cc2nccc(Oc3ccc(NC(=O)NC4CC4)c(Cl)c3)c2cc1C(N)=O [methanesulfonate of the compound (IV), 4-[3-chloro-4-(cyclopropylaminocarbonyl)aminophenoxy]-7-methoxy-6-quinoline-carboxamide Methanesulfonate]",decomposition product formed,[4],the compound (I) is formed as a decomposition product
